Laboratory results taken from patent US7476764B2, “Phenylcarboxyamides as beta-secretase inhibitors” (Bristol-Myers Squibb Company, priority 2005, dated 2009).
Counter-ions that a name gives are not always drawn.

Molecular target: T1, BACE1 enzyme (Homo sapiens, UniProt P56817)
T1 construct: The HEK293-9B.A1 cell line, which overexpresses the BACE1 enzyme, was derived from HEK293 cells; endogenous in cells; washed 48,000 x g pellet of the cell homogenate
Experiment: Radioligand displacement assay with a radiolabeled BACE inhibitor on HEK293-9B.A1 cell homogenate
Assay type: binding
Conditions: displacement of 1 nM tritiated radioligand, HEK293-9B.A1 homogenate, pH 5.0, 1.5 hr at 25° C.; read-out: Activity Rating (activity based on IC50 values)
Method: Radioligand displacement assays with a radiolabeled BACE inhibitor (WO 2004 013098, compound 3, where the methoxy group is substituted for C(^3H)3) were carried out using standard methods (Keen, M. (1999) in Receptor Binding Techniques (Walker, J. M. ed) p. 106 Humana Press, Totowa, N.J.). The HEK293-9B.A1 cell line, which overexpresses the BACE1 enzyme, was derived from HEK293 cells (Simmons, N. L. (1990) A cultured human renal epitheloid cell line responsive to vasoactive intestinal peptide. Exp. Physiol. 75:309-19.) by RAGE™ (Harrington, J. J. et al. (2001) Creation of genome-wide protein expression libraries using random activation of gene expression. Nat. Biotechnol. 19:440-5; U.S. Pat. Nos. 6,410,266 and 6,361,972). T225 flask cultures of HEK293-9B.A1 were grown to 80% confluency in DMEM supplemented with 2 mM L-glutamine, 10 μg/ml penicillin, 10 μg/ml streptomycin, 3 μg/ml puromycin, 100 nM methotrexate, and 10% fetal bovine serum (Invitrogen, Carlsbad, Calif.), harvested, and resuspended at 2×10^8 cells per 10 ml of lysis buffer consisting of 50 mM HEPES pH 7.0 containing a protease inhibitor cocktail of AEBSF 104 μM, aprotinin 80 nM, leupeptin 2 μM, bestatin 4 μM, pepstatin A 1.5 μM, and E-64 1.4 μM (0.1% of protease inhibitor cocktail P8340, Sigma-Aldrich, St. Louis, Mo.) at 4° C. The resuspended cells were homogenized using a Polytron (Brinkman, Westbury, N.Y.) at setting 6 for 10 sec., then centrifuged at 48,000×g for 10 min. The resulting pellet was washed by repeating the resuspension, homogenization and centrifugation steps. The final pellet was resuspended in buffer at 4° C. to yield a total protein concentration of 5 mg/ml, then aliquots were frozen in liquid nitrogen for further storage at −70° C. Immediately before carrying out a binding assay, an aliquot of cell homogenate was thawed and diluted to a concentration of 100 μg/ml in assay buffer consisting of 50 mM HEPES pH 5.0 and 0.1% CHAPSO. Assays were initiated in polypropylene 96-well plates (Costar, Cambridge, Mass.) by the addition of 200 μl of cell homogenate to 50 μl of assay buffer containing 1 nM radioligand (WO 2004 013098, compound 3, where the methoxy group is substituted for C(^3H)3: 80 Ci/mMol) and various concentrations of unlabelled compounds, and incubated for 1.5 hr. at 25° C. Separation of bound from free radioligand was by filtration on GFF glass fiber filters (Innotech Biosystems International, Lansing, Mich.) using an Innotech cell harvester.

T1 sequence (P56817 46-501): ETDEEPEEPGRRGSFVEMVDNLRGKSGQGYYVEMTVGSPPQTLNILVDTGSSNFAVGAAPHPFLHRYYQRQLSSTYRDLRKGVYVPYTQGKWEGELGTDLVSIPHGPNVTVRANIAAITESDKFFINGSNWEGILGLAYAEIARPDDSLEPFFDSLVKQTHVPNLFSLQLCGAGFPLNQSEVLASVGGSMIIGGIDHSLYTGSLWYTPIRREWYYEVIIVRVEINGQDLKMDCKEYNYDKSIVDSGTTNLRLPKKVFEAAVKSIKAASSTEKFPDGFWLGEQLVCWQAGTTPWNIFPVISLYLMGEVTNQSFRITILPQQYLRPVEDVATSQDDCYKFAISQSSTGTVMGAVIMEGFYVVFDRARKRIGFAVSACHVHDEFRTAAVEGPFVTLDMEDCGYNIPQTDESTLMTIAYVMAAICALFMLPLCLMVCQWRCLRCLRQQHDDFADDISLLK

| Compound | IC50 [nM] |
| --- | --- |
| CCCO/N=C(\C)c1cc(C(=O)N[C@@H](Cc2cc(F)cc(F)c2)[C@H](O)CNCc2cccc(OC)c2)cc(S(C)(=O)=O)c1 [Example 19, N-((2S,3R)-4-(3-methoxybenzylamino)-1-(3,5-difluorophenyl)-3-hydroxybutan-2-yl)-3-(methylsulfonyl)-5-((E)-1-(propoxyimino)ethyl)benzamide TFA salt] | 100 to 1000 |
| COc1cccc(CNC[C@@H](O)[C@H](Cc2cc(F)cc(F)c2)NC(=O)c2cc(/C(C)=N/OCC(C)C)cc(S(C)(=O)=O)c2)c1 [Example 20, N-((2S,3R)-4-(3-methoxybenzylamino)-1-(3,5-difluorophenyl)-3-hydroxybutan-2-yl)-3-((E)-1-(isobutoxyimino)ethyl)-5-(methylsulfonyl)benzamide TFA salt] | > 1000 |
| C=CCO/N=C(\C)c1cc(C(=O)N[C@@H](Cc2cc(F)cc(F)c2)[C@H](O)CNCc2cccc(OC)c2)cc(S(C)(=O)=O)c1 [Example 21, N-((2S,3R)-4-(3-methoxybenzylamino)-1-(3,5-difluorophenyl)-3-hydroxybutan-2-yl)-3-((E)-1-(allyloxyimino)ethyl)-5-(methylsulfonyl)benzamide TFA salt] | 100 to 1000 |
| COc1cccc(CNC[C@@H](O)[C@H](Cc2cc(F)cc(F)c2)NC(=O)c2cc(C(C)=O)cc(N3CCCCS3(=O)=O)c2)c1 [Example 22, N-[(1S,2R)-1-(3,5-difluoro-benzyl)-2-hydroxy-3-(3-methoxy-benzylamino)-propyl]-3-(1,1-dioxo-1λ^6-[1,2]thiazinan-2-yl)-5-acetyl-benzamide TFA salt] | < 100 |
| COc1cccc(CNC[C@@H](O)[C@H](Cc2cc(F)cc(F)c2)NC(=O)c2cc(C(C)O)cc(N3CCCCS3(=O)=O)c2)c1 (stereo partly drawn) [Example 23, N-[(1S,2R)-1-(3,5-difluoro-benzyl)-2-hydroxy-3-(3-methoxy-benzylamino)-propyl]-3-(1,1-dioxo-1λ^6-[1,2]thiazinan-2-yl)-5-(1-hydroxy-ethyl)-benzamide TFA salt] | < 100 |
| CO/N=C(\C)c1cc(C(=O)N[C@@H](Cc2cc(F)cc(F)c2)[C@H](O)CNCc2cccc(OC)c2)cc(N2CCCCS2(=O)=O)c1 [Example 24, N-[(1S,2R)-1-(3,5-difluoro-benzyl)-2-hydroxy-3-(3-methoxy-benzylamino)-propyl]-3-(1,1-dioxo-1λ^6-[1,2]thiazinan-2-yl)-5-{1-[(E)-methoxyimino]-ethyl}-benzamide TFA salt] | < 100 |
| COc1cccc(CNC[C@@H](O)[C@H](Cc2cc(F)cc(F)c2)NC(=O)c2cc(/C(C)=N/OCc3ccccc3)cc(N3CCCCS3(=O)=O)c2)c1 [Example 25, N-[(1S,2R)-1-(3,5-difluoro-benzyl)-2-hydroxy-3-(3-methoxy-benzylamino)-propyl]-3-(1,1-dioxo-1λ^6-[1,2]thiazinan-2-yl)-5-{1-[(E)-benzyloxyimino]-ethyl}-benzamide TFA salt] | < 100 |
| CCCO/N=C(\C)c1cc(C(=O)N[C@@H](Cc2cc(F)cc(F)c2)[C@H](O)CNCc2cccc(OC)c2)cc(N2CCCCS2(=O)=O)c1 [Example 26, N-[(1S,2R)-1-(3,5-difluoro-benzyl)-2-hydroxy-3-(3-methoxy-benzylamino)-propyl]-3-(1,1-dioxo-1λ^6-[1,2]thiazinan-2-yl)-5-{1-[(E)-propoxyimino]-ethyl}-benzamide TFA salt] | < 100 |
| COc1cccc(CNC[C@@H](O)[C@H](Cc2cc(F)cc(F)c2)NC(=O)c2cc(/C(C)=N/OCC(C)C)cc(N3CCCCS3(=O)=O)c2)c1 [Example 27, N-[(1S,2R)-1-(3,5-difluoro-benzyl)-2-hydroxy-3-(3-methoxy-benzylamino)-propyl]-3-(1,1-dioxo-1λ^6-[1,2]thiazinan-2-yl)-5-{1-[(E)-isobutoxyimino]-ethyl}-benzamide TFA salt] | 100 to 1000 |
